Experimental findings from ChEMBL document CHEMBL1152396, “Cardenolides from Pergularia tomentosa display cytotoxic activity resulting from their potent inhibition of Na+/K+-ATPase” (J Nat Prod, 2009) are described below.

Calls of active or inactive are those of the source. The rule behind the calls is not given here.

The subject of test [1] is A549. In words: Induction of human A549 cell growth delay assessed as morphological changes at 200 nM after 3 days by video microscopy. The test is classed as functional, cell-based.
Test [2] deals with BXPC-3. Kind of test: Antiproliferative activity against human BxPC3 cells after 72 hrs by MTT assay. The test is classed as functional, cell-based. To be noted: BXPC-3, 72 h.
For test [3], the system named is PC-3. Kind of test: Antiproliferative activity against human PC3 cells after 72 hrs by MTT assay. The test is classed as functional, cell-based. The note with it: PC-3, 72 h. A general note: Tetrazolium assays rely on reduction of a dye to a coloured formazan, in cell work by metabolically active cells.
Test [4] deals with A549. In words: Antiproliferative activity against human A549 cells after 72 hrs by MTT assay. The test is classed as functional, cell-based. The note with it: A549, 72 h.
Test [5] has as its system U-373MG ATCC. Kind of test: Induction of human U373 cell growth delay assessed as morphological changes at 400 nM after 3 days by video microscopy. The test is classed as functional, cell-based.
Test [6] concerns U-373MG ATCC. Kind of test: Induction of human U373 cell death assessed as morphological changes at 400 nM after 3 days by video microscopy. The test is classed as functional, cell-based.
Test [7] is described as follows: Inhibition of pig cerebral cortex Na+/K+-ATPase by colorimetric microplate-based assay. The test is classed as tissue-based, Sus scrofa.
The nature of test [8]: Antiproliferative activity against human U373 cells after 72 hrs by MTT assay. The test is classed as functional, cell-based, U-373MG ATCC. To be noted: U373 MG.
Test [9] has as its system MCF7. Kind of test: Antiproliferative activity against human MCF7 cells after 72 hrs by MTT assay. The test is classed as functional, cell-based. The note with it: MCF7, 72 h.
Test [10] deals with A549. In words: Induction of human A549 cell death assessed as morphological changes at 200 nM after 3 days by video microscopy. The test is classed as functional, cell-based.
For test [11], the system named is LoVo. In words: Antiproliferative activity against human LoVo cells after 72 hrs by MTT assay. The test is classed as functional, cell-based.
For test [12], the system named is A549. Kind of test: Induction of human A549 cell growth delay assessed as morphological changes at 80 nM after 3 days by video microscopy. The test is classed as functional, cell-based.
Test [13] has as its system A549. Kind of test: Induction of human A549 cell death assessed as morphological changes at 80 nM after 3 days by video microscopy. The test is classed as functional, cell-based.
The species named for test [14] is Sus scrofa. Kind of test: Inhibition of pig cerebral cortex Na+/K+ ATPase at 1 mM by colorimetric microplate-based assay. The test is classed as tissue-based.
Test [15] has as its system A549. Kind of test: Induction of human A549 cell growth delay assessed as morphological changes at 800 nM after 3 days by video microscopy. The test is classed as functional, cell-based.
In test [16] the test system is A549. In words: Induction of human A549 cell death assessed as morphological changes at 800 nM after 3 days by video microscopy. The test is classed as functional, cell-based.
The test system of test [17] is U-373MG ATCC. Kind of test: Induction of human U373 cell death assessed as morphological changes at 3.4 uM after 3 days by video microscopy. The test is classed as functional, cell-based.
Test [18] relates to U-373MG ATCC. In words: Induction of human U373 cell growth delay assessed as morphological changes at 3.4 uM after 3 days by video microscopy. The test is classed as functional, cell-based.

For orientation: IC50 means the concentration at which inhibition is half-maximal. Read a high IC50 as weaker potency. On to `C[C@@H]1C[C@@H](O[C@H]2O[C@H](CO)[C@@H](O)[C@H](O)[C@H]2O)[C@]2(O)O[C@@H]3C[C@@]4(C=O)[C@@H](CC[C@@H]5[C@@H]4CC[C@]4(C)[C@@H](C6=CC(=O)OC6)CC[C@]54O)C[C@H]3O[C@@H]2O1`, for which the result in test [1], in test [5], in test [6] and in test [10] was Active. Moreover, the IC50 is 500 nM in test [2]; 200 nM in [3]; 200 nM in [4]; 500 nM in test [7]; 400 nM in [8]; 300 nM in [9]. The compound further displayed an IC50 in test [11] of 400 nM.

Take `C[C@]12[C@H](O)C[C@H]3[C@@H](CC[C@H]4C[C@H]5O[C@@H]6O[C@H](CO)C[C@@H](O)[C@]6(O)O[C@@H]5C[C@@]43CO)[C@@]1(O)CC[C@@H]2C1=CC(=O)OC1` [GHALAKINOSIDE]: the IC50 in [2] was 300 nM; in test [3] it was 80 nM; in test [4], 80 nM; in test [7] it was 300 nM; in [8] it was 400 nM; in [9] it was 300 nM. Also, in [11], the IC50 was 300 nM. Further, the outcome in test [5], in test [6], in test [12] and in test [13] was Active.

As to `C[C@]12CC[C@H]3[C@@H](CC[C@H]4C[C@H]5O[C@@H]6O[C@H](CO)C[C@@H](O)[C@]6(O)O[C@@H]5C[C@@]43CO)[C@@]1(O)CC[C@@H]2C1=CC(=O)OC1`, the half-maximal inhibitory concentration (IC50) turned out to be 300 nM in [2]; 40 nM in [3]; 40 nM in test [4]; 400 nM in [7]; 100 nM in [8]; 400 nM in test [9]. In [11], this compound showed a concentration for half-maximal inhibition (IC50) of 200 nM.

As for `C[C@@H]1C[C@@H](O)[C@]2(O)O[C@@H]3C[C@@]4(C=O)[C@@H](CC[C@@H]5[C@@H]4CC[C@]4(C)[C@@H](C6=CC(=O)OC6)CC[C@]54O)C[C@H]3O[C@@H]2O1` [CALACTIN], the IC50 in [2] came to 80 nM; in [3] it was 20 nM; in test [4] it was 20 nM; in test [7] it was 400 nM; in test [8], 200 nM; in test [9], 40 nM. This compound also gave a half-maximal inhibitory concentration (IC50) in test [11] of 50 nM.

In [4], `C[C@@H]1CC2(NC(=O)CS2)[C@]2(O)O[C@@H]3C[C@@]4(CO)[C@@H](CC[C@@H]5[C@@H]4CC[C@]4(C)[C@@H](C6=CC(=O)OC6)CC[C@]54O)C[C@H]3O[C@@H]2O1` (stereo not given in full) returned an IC50 of 8 nM.

As to `C[C@@H]1C[C@@H](O)[C@]2(O)O[C@@H]3C[C@@]4(CO)[C@@H](CC[C@@H]5[C@@H]4C[C@@H](O)[C@]4(C)[C@@H](C6=CC(=O)OC6)CC[C@]54O)C[C@H]3O[C@@H]2O1`, the IC50 turned out to be 300 nM in [2]; 50 nM in [3]; 50 nM in [4]; 700 nM in test [7]; 400 nM in [8]; 300 nM in test [9]. This compound registered an IC50 in test [11] of 300 nM.

A word on the inhibition: it is the change of the read-out against control, counted positive when it falls. Lower therefore signals a weak effect. In [14], `C[C@@H]1O[C@@H](O[C@H]2C[C@@H](O)[C@]3(CO)[C@H]4[C@H](O)C[C@]5(C)[C@@H](C6=CC(=O)OC6)CC[C@]5(O)[C@@H]4CC[C@]3(O)C2)[C@H](O)[C@H](O)[C@H]1O` displayed an inhibition of 100%.

On to `CC(=O)O[C@@H]1C[C@]2(O)[C@@H]3CC[C@H]4C[C@H]5O[C@@H]6O[C@H](CO)C[C@@H](O)[C@]6(O)O[C@@H]5C[C@]4(C=O)[C@H]3CC[C@]2(C)[C@H]1C1=CC(=O)OC1`, for which the IC50 worked out at 4400 nM in [2]; 1200 nM in [3]; 800 nM in test [4]; 1200 nM in [7]; 3400 nM in test [8]; 4100 nM in [9]. The same compound showed an IC50 in test [11] of 6400 nM. The outcome in test [15], in [16], in [17] and in test [18] was Active.

`C[C@]12CC[C@H]3[C@@H](CC[C@H]4C[C@H]5O[C@@H]6O[C@H](CO)C[C@@H](O)[C@]6(O)O[C@@H]5C[C@@]43C=O)[C@@]1(O)CC[C@@H]2C1=CC(=O)OC1`: the IC50 was 600 nM in test [2]; 300 nM in [3]; 80 nM in test [4]; 500 nM in [7]; 400 nM in test [8]; 500 nM in test [9]. The same compound yielded an IC50 in test [11] of 900 nM.

Turning to `C[C@@H]1C[C@@H](O)[C@]2(O)O[C@@H]3C[C@@]4(C=O)[C@@H](CC[C@@H]5[C@@H]4CC[C@]4(C)[C@@H](C6=CC(=O)OC6)[C@H](O)C[C@]54O)C[C@H]3O[C@@H]2O1`, the IC50 in test [2] is 2300 nM; in [3], 1000 nM; in test [4] it was 400 nM; in test [7], 1700 nM; in test [8] it was 2600 nM; in test [9] it was 3800 nM. For the same compound, the IC50 in test [11] was 4400 nM.
